According to patent US6369109B1, “Betulinic acid and derivatives thereof useful for the treatment of neuroectodermal tumor” (Deutsches Krebsforschungszentrum Stiftung des Offentlichen …, priority 1998, dated 2002):

Legend:
[1] = system: mitochondria isolated from SHEP cells; experiment: Cytochrome c release from isolated mitochondria (Western blot); assay type: biochemical, human; details: bongkrekic acid; FIG. 10C
Procedure: Cells were lysed for 30 min at 4° C. in PBS with 0.5% Triton X (Serva, Heidelberg, Germany) and 1 mM PMSF (Sigma, Deisenhofen, Germany) followed by high-speed centrifugation. Membrane proteins were eluted in buffer containing 0.1 M glycine, pH 3.0 and 1.5 M Tris, pH 8.8. Protein concentration was assayed using bicinchoninic acid (Pierce, Rockford, Ill.). 40 μg protein per lane was separated by 12% or 15% SDS-PAGE and electro blotted onto nitrocellulose (Amersharn, Braunschweig, Germany). Equal protein loading was controlled by Ponceau red staining of membranes. After blocking for 1 h in PBS supplemented with 2% BSA (Sigma) and 0.1% Tween 20 (Sigma), immunodetection of caspases-3 and -8, PARP, and cytochrome c protein was done using mouse anti-caspase-8 mAb C15 (Scaffidi et al., 1997, J. Biol. Chem. 272, 26953-26958, 1:5 dilution of hybridoma supernatant), mouse anti-caspase-3-specific mAb (1:1000, Transduction Laboratories, Lexington, Ky.), rabbit anti-PARP polyclonal antibody (1:10000, Enzyme Systems Products) or mouse anti-cytochrome c mAb (1:5000, PharMingen, San Diego, Calif.). Goat anti-mouse IgG or goat anti-rabbit IgG (1:5000, Santa Cruz Biotechnology) followed by ECL (Amersham) was used for detection.
Mitochondria isolated from SHEP cells transfected with bcl-2, Bcl-XL or a neontycin resistance vector only (Neo) were treated with 10 μg/ml betulinic acid. […]

[2] = system: CD95-L mRNA in SH-EP neuroblastoma cells; experiment: CD95-L mRNA expression by RT-PCR; assay type: cell-based, human; details: 5 and 10 μg/ml betulinic acid; 0.5 μg/ml doxorubicin 24 h; FIG. 3A
Procedure: Total RNA was prepared using the Qiagen total RNA kit (Qiagen, Hilden, Germany). RNA was converted to cDNA by reverse transcription and amplified for 38 cycles by PCR in a thermocycler (Stratagene, Heidelberg, Germany) using the Gene Amplification RNA-PCR kit (Perkin-Elmer, Branchburg, N.J.) following the manufacturer's instructions. Primers used for amplification of the CD95-L fragment are according to the sequence of human CD95-L (Suda et al., 1995, Cell 75:1169-1178; Herr et al., 1996, Cell Death Diff., 5:299-305). Expression of β-actin (MWG-Biotech, Ebersberg, Germany) was used as an internal standard for RNA integrity and equal gel loading. PCR products were run at 60 V for 2 h on a 1.5% agarose gel stained with ethidium bromide and visualized by UV illumination.
SH-EP neuroblastoma cells were incubated with 5 and 10 μg/ml betulinic acid for the indicated times or with 0.5 μg/ml doxorubicin for 24 h. CD95-L mRNA expression was determined by RT-PCR. Expression of μ-actin was used to control RNA integrity and equal gel loading.

[3] = system: CD95-L and CD95 in SHEP cells transfected with Bcl-2, Bcl-XL or Neo; experiment: Induction of CD95-L and CD95 (RT-PCR, Western blot, FACS); assay type: cell-based, human; details: 0.5 μg/ml Doxo or 10 μg/ml betulinic acid, 24 h, Bcl-2 or Bcl-XL cells, FIG. 13
Procedure: Cells were stained with anti-APO-1 (CD95) IgGl monoclonal antibody (moab) (1 μg/ml; Trauth et al., 1989, Science 245:301-305) for 45 minutes at 4° C. followed by goat anti-mouse IgG-FITC (Immunotech, Hamburg, Germany) for 30 minutes at 4° C. FII23 IgGl antibody was used as an isotype matched non-binding antibody to control unspecific binding.
Total RNA was prepared using the Qiagen total RNA kit (Qiagen, Hilden, Germany). RNA was converted to cDNA by reverse transcription and amplified for 38 cycles by PCR in a thermocycler (Stratagene, Heidelberg, Germany) using the Gene Amplification RNA-PCR kit (Perkin Elmer, Branchburg, N.J.) following the manufacturer's instructions. A 500-base pair fragment of CD95-L was amplified using primer 5′[…]3′ (SEQ ID:No 1) and 5′[…]3′ (SEQ ID NO:2) and a 311-base pair fragment of CD95 was amplified using primer 5′[…] […]
CD95-L mRNA expression was determined by RT-PCR. […] CD95-L protein was detected as a Mr 37,000 band by mouse anti-CD9S-L moab and enhanced chemiluminescence.
SHEP cells transfected with Bcl-2 or Bcl-XL or a neomycin resistance vector only (Neo) were treated (Lanes+) with 0.5 μg/ml Doxo or 10 μg/ml Bet A for 24 h. CD95 mRNA expression was determined by RT-PCR. […] For FACS analysis of CD95 protein expression (C), cells were stained with mouse anti-APO-1 moab followed Dy FITC-conjugated antimouse IgG antibody and analyzed by flow cytometry. […]

## CO[C@H](C/C=C\C=C\CC/C=C/C[C@H](C)/C=C/C(=C\C(=O)O)CC(=O)O)/C(C)=C\C=C(/C)C(=O)O [bongkrekic acid]
[1]
  effect of inhibitor on betulinic acid-driven release of cytochrome c: blocked

## COc1cccc2c1C(=O)c1c(O)c3c(c(O)c1C2=O)C[C@@](O)(C(=O)CO)C[C@@H]3O[C@H]1C[C@H](N)[C@H](O)[C@H](C)O1 [doxorubicin]
[2]
  CD95-L mRNA induction: strongly up-regulated CD95-L mRNA
[3]
  induction of CD95-L and CD95: Both CD95-L and CD95 were induced at the mRNA and protein level
